We go through one molecule from patent US20100160359A1, “Modulators of Metabolism and the Treatment of Disorders Related Thereto” (ARENA PHARMACEUTICALS, INC., priority 2005, published 2010).

The IC50 is the concentration that inhibits the measured activity by half. A word on the solubility: it is the concentration that dissolves in the medium under given conditions.

In brackets after ≈: the same amount, converted by molar mass.

Data set [1] has as its target CYP3A4 (Homo sapiens, UniProt P08684). In words: P450 inhibition screening assay, CYP3A4. The class given is in vitro ADME. The following applies: cDNA expressed human enzyme, fluorescent substrates. The protocol: (§1) The P450 inhibition screening assay was performed in 96-well microtiter plates by using cDNA expressed human enzymes (CYP1A2, 2C9, 2C19, 2D6 and 3A4). […] The enzymatic reaction was initiated by adding individual P450 enzymes pre-mixed with P450-specific fluorescent substrates, and stopped by adding acetonitrile (or NaOH for DBF assays) to the reaction mixture after incubation at 37° C. for a given amount of time. The fluorescence of metabolites was measured on a Biotek fluorescence reader. The results were expressed as inhibition percentage relative to the control (no test compound). IC50 values were estimated from the concentration response curve. […] Test compounds are classified into three categories based on their IC50 values.

The target in data set [2] is T1, CYP1A2 (Homo sapiens, UniProt P05177).
T1 sequence (P05177 1-516): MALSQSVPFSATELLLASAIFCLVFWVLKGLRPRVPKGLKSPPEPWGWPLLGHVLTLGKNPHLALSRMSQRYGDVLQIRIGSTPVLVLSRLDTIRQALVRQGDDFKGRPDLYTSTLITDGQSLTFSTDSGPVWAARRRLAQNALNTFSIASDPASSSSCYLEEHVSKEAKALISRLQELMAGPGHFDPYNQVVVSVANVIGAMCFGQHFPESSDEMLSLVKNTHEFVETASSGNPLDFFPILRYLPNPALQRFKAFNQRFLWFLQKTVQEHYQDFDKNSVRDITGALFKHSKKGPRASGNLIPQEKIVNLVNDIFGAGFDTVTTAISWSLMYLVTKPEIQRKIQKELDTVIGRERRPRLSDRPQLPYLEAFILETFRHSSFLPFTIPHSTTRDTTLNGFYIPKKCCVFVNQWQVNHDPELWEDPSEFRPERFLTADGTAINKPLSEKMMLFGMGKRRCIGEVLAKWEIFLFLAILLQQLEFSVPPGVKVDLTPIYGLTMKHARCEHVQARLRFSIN
The data set can be described thus: P450 inhibition screening assay, CYP1A2. To be noted: cDNA expressed human enzyme, fluorescent substrate CEC. It counts as in vitro ADME. The protocol: as §1

The target of data set [3] is CYP2C9 (Homo sapiens, UniProt P11712). In words: P450 inhibition screening assay, CYP2C9. To be noted: cDNA expressed human enzyme, fluorescent substrate DBF; read-out: IC50 against the CYP2C9 enzyme. The class given is in vitro ADME. The protocol: as §1
CYP2C9, sequence (P11712 whole entry): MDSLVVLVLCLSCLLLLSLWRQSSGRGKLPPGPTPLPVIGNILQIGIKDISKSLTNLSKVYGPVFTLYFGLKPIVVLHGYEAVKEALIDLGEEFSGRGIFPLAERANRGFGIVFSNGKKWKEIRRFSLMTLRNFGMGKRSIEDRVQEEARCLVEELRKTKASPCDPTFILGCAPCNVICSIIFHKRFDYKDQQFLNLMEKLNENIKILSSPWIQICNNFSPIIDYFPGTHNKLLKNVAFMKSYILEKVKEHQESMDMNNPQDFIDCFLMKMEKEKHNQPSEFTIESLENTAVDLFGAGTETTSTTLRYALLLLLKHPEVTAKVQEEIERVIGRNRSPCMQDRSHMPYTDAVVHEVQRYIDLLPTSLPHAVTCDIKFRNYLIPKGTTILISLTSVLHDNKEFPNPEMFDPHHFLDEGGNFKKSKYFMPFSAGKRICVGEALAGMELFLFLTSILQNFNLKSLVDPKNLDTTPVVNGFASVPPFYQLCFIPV
In data set [4] the test system is Male Sprague Dawley rats. In words: Oral glucose tolerance test (oGTT) in rats. The class given is in vivo. To be noted: rat oGTT, dextrose 3 g/kg. Here is the method:
General Procedure—Oral Glucose Tolerance Test (oGTT)
Male Sprague Dawley rats (Harlan, San Diego, Calif.) weighing approximately 350-375 g were fasted for 16 hours and randomly grouped (n=6) to receive a RUP3 agonist at 0.3, 3 or 30 mg/kg. Compounds were delivered orally via a gavage needle (p.o., volume 2 mL/kg). At time 0, levels of blood glucose were assessed using a glucometer (Accu-Chek Advantage, Roche Diagnostics), and rats were administered either vehicle (20% hydroxypropyl-beta-cyclodextrin) or test compound. Thirty minutes after administration of test compound, levels of blood glucose were again assessed, and rats were administered dextrose orally at a dose of 3 g/kg. Blood glucose measurements were then taken 30 min, 60 min, and 120 min after this time.

Data set [5] in a line: Solubility determination in water (HPLC). It counts as physicochemical. To be noted: thermodynamic from solid, about 25° C., equilibrated no less than 12 hours, read-out: aqueous solubility. The protocol: The vial contents were mixed for 30 seconds using a VWR mini vortexter followed by sonication (Branson 1510) for 1 minutes. Vials were placed into a constant temperature bath (i.e., about 25° C.) and allowed to equilibrate for no less than 12 hours. The resulting suspensions were transferred to eppendorf tubes each equipped with a 0.2 μm nylon filter (Costar 8168) and were centrifuged for 10 minutes at 14,000 rpms. The supernatant from each eppendorf tube was collected and diluted with HPLC grade acetonitrile with dilution factor of 200, 400 or 500. Each solution was analyzed by an HPLC method. […]
Quantification was effected by comparison of the HPLC peak area for each test solution with the peak area taken from a standard plot of concentration versus peak area for standards of known concentration. As is conventional, the standard concentrations for 4-[5-methyl-6-(2-methyl-pyridin-3-yloxy)-pyrimidin-4-yloxy]piperidine-1-carboxylic acid isopropyl ester were selected to fall within a linear range of concentration versus absorbance for the UV detector employed. […]

Data set [6] deals with CYP2D6 (Homo sapiens, UniProt P10635). The data set can be described thus: P450 inhibition screening assay, CYP2D6. It counts as in vitro ADME. To be noted: cDNA expressed human enzyme, fluorescent substrate AMMC. Here is the method:
as §1

Data set [7] has as its target CYP2C19 (Homo sapiens, UniProt P33261). The data set can be described thus: P450 inhibition screening assay, CYP2C19. It counts as in vitro ADME. The following applies: cDNA expressed human enzyme, fluorescent substrate DBF. The protocol:
as §1

CYP3A4, sequence (P08684 whole entry): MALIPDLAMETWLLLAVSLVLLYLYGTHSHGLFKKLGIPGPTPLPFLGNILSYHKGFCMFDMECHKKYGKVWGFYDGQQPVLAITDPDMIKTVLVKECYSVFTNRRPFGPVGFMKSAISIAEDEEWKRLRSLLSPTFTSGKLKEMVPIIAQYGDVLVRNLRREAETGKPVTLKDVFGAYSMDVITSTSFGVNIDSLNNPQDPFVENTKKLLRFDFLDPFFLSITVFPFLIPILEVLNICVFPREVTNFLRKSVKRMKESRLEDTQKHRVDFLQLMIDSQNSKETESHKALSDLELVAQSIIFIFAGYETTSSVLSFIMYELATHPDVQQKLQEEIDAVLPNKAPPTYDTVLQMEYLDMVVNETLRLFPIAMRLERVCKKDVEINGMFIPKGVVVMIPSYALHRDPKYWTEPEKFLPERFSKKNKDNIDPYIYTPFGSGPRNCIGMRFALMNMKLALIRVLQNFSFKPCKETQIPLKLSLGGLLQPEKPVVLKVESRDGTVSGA
CYP2C19, sequence (P33261 whole entry): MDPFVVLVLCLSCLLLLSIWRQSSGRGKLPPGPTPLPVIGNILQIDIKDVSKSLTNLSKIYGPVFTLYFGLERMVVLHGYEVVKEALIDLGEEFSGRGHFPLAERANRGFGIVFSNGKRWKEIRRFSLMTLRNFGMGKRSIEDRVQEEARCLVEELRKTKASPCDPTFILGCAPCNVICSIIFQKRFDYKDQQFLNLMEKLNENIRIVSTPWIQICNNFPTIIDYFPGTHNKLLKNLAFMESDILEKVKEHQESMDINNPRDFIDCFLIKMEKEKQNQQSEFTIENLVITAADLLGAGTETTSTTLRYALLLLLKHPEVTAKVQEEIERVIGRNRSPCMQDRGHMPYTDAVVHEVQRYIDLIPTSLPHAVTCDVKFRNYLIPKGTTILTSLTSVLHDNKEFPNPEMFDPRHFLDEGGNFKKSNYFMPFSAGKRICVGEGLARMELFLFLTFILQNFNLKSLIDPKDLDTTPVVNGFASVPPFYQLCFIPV
CYP2D6, sequence (P10635 whole entry): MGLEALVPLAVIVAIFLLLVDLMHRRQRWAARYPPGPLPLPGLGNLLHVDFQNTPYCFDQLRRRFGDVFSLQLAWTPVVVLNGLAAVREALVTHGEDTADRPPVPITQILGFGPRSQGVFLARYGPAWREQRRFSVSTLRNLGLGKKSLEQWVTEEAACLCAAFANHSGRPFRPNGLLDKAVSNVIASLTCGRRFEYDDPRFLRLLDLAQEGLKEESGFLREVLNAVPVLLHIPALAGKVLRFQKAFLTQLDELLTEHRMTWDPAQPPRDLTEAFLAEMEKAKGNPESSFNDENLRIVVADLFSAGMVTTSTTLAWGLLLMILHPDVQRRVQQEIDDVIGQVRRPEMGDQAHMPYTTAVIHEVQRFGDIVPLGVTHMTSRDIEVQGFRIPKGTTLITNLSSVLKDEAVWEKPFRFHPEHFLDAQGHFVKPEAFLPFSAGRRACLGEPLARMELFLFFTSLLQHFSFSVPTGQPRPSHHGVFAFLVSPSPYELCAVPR

As to `Cc1ncccc1Oc1ncnc(OC2CCN(C(=O)OC(C)C)CC2)c1C` [4-[5-methyl-6-(2-methyl-pyridin-3-yloxy)-pyrimidin-4-yloxy]-piperidine-1-carboxylic acid isopropyl ester], the IC50 in data set [1] is more than 40 µM; in data set [2] it was more than 40 µM; in data set [3], more than 15 µM; in data set [6] it was more than 40 µM; in data set [7], approximately 10 µM. Moreover, the “Mean % Inhibition of Glucose Excursion” value in data set [4] (0.3 mg/Kg p.o.) is listed as 22%; in data set [4] (3 mg/Kg p.o.), 24%; in data set [4] (30 mg/Kg p.o.), 70%. Further, the solubility in data set [5] was approximately 40 mg/mL (≈ 104 mM).
